Results as given in US8758775B2 (priority 2005, dated 2014).

Legend:
[1] = system: E. coli-sta enterotoxin induced diarrhoea; parameters: species or system NMRI mice; conditions: mouse, in vivo
[2] = system: E. coli-sta enterotoxin induced diarrhoea; parameters: species or system NMRI mice; conditions: mouse, in vivo; remark: listed apart in the source
[3] = system: heartburn in patients suffering from endoscopic negative GORD; conditions: in vivo
[4] = system: intestinal system's proteolytic capacity and disacaridase potential; conditions: cited from earlier work

Q: With `CN(C)C(=O)C(CCN1CCC(O)(c2ccc(Cl)cc2)CC1)(c1ccccc1)c1ccccc1` [loperamide] as the compound, how does the frequency of defecation [1] read?
A: Its frequency of defecation is “significantly reduced (P<0.05)”.

Q: And the “reduction in stool weight” value [1]?
A: Its value is “significant (P<0.05)”.

Q: And the “mean number of stools passed” value [2]?
A: The value was “reduction”.

Q: What about the net stool weight [2] of the same compound?
A: Its net stool weight is “reduction”.

Q: Which results are given for clinoptilolite?
A: Reported side-effects: Bloatedness [3]: 3/10; Reported side-effects: Constipation [3]: 2/10; Reported side-effects: Nausea [3]: 1/10; Reported side-effects: No side-effects [3]: 4/10; Reported side-effects: Sleeplessness [3]: 1/10; intestinal system's proteolytic capacity and disacaridase potential [4]: not modified
